Reference: patent US9204653B2, “5-fluoro pyrimidine derivatives” (DOW AGROSCIENCES LLC, priority 2008, dated 2015)
Read-outs that look alike come from different tables or passages of the source.

Test system: Mycosphaerella graminicola; Anamorph: Septoria tritici; Bayer Code SEPTTR
Assay: Leaf blotch of wheat, foliar fungicide treatment, one day protectant (1DP) or three day curative (3DC)
Type: in vivo, Septoria tritici on wheat plants (variety Yuma)
Conditions: Zymoseptoria tritici, rating of percent disease control
[1] = 24 h, one day protectant, read-out: SETTTR 1DP 25 ppm
[2] = 24 h, one day protectant, read-out: SEPTTR 1DP 100 ppm
[3] = 72 h, three day curative, read-out: SEPTTR 3DC 25 ppm
[4] = 72 h, three day curative, read-out: SEPTTR 3DC 100 ppm
[5] = 24 h, one day protectant (1DP), read-out: SETTTR 1DP 25 ppm
[6] = 24 h, one day protectant (1DP), read-out: SEPTTR 1DP 100 ppm
[7] = 72 h, three day curative (3DC), read-out: SEPTTR 3DC 25 ppm
[8] = 72 h, three day curative (3DC), read-out: SEPTTR 3DC 100 ppm

| Compound | pest or weed control at 25 ppm [1] | pest or weed control at 100 ppm [2] | pest or weed control at 25 ppm [3] | pest or weed control at 100 ppm [4] | pest or weed control at 25 ppm [5] | pest or weed control at 100 ppm [6] | pest or weed control at 25 ppm [7] | pest or weed control at 100 ppm [8] |
| --- | --- | --- | --- | --- | --- | --- | --- | --- |
| Nc1nc(OCC2CC2)ncc1F [Compound 722] | 0 to 25% | 0 to 25% | 0 to 25% | 26 to 50% | – | – | – | – |
| CCCNC(=O)Nc1nc(OCc2ccccc2OC)ncc1F [Compound 724] | 0 to 25% | 26 to 50% | 0 to 25% | 0 to 25% | – | – | – | – |
| Nc1nc(OCc2ccc(I)cc2)ncc1F [Compound 725] | 76 to 100% | 76 to 100% | 76 to 100% | 76 to 100% | – | – | – | – |
| COc1ccc(COc2ncc(F)c(/N=C/N(C)C)n2)cc1 [Compound 726] | 76 to 100% | 76 to 100% | 76 to 100% | 76 to 100% | – | – | – | – |
| C/C(=N\c1nc(OCc2ccc(F)cc2)ncc1F)N(C)C [Compound 727] | 76 to 100% | 76 to 100% | 76 to 100% | 76 to 100% | – | – | – | – |
| CC#CCOc1ncc(F)c(NC(=O)Nc2ccsc2)n1 [Compound 729] | 51 to 75% | 26 to 50% | 51 to 75% | 51 to 75% | – | – | – | – |
| CC(C)CCOc1ncc(F)c(N)n1 [Compound 731] | 0 to 25% | 0 to 25% | 0 to 25% | 0 to 25% | – | – | – | – |
| Cc1ccccc1COc1ncc(F)c(N)n1 [Compound 733] | 76 to 100% | 76 to 100% | 76 to 100% | 76 to 100% | – | – | – | – |
| COc1ccc(Oc2ncc(F)c(NC(=O)Nc3ccsc3)n2)cc1 [Compound 737] | – | – | – | – | 0 to 25% | 0 to 25% | 0 to 25% | 0 to 25% |
| CCCCCC(CC)Oc1ncc(F)c(N)n1 (stereo not shown) [Compound 740] | – | – | – | – | 0 to 25% | 0 to 25% | – | – |
| Nc1nc(OCc2cc(Cl)cc(C(F)(F)F)c2)ncc1F [Compound 743] | – | – | – | – | 76 to 100% | 76 to 100% | 76 to 100% | 76 to 100% |
| CC(C)/C(=N\c1nc(OCc2ccc(F)cc2)ncc1F)N(C)C [Compound 744] | – | – | – | – | 76 to 100% | 76 to 100% | 76 to 100% | 76 to 100% |
| CC#CCOc1ncc(F)c(NC(C)=O)n1 [Compound 745] | – | – | – | – | 76 to 100% | 76 to 100% | 76 to 100% | 76 to 100% |
| C#CCOc1ncc(F)c(N)n1 [Compound 746] | – | – | – | – | 0 to 25% | 0 to 25% | 0 to 25% | 76 to 100% |
| CC1CC1COc1ncc(F)c(N)n1 (stereo not shown) [Compound 747] | – | – | – | – | 0 to 25% | 76 to 100% | 51 to 75% | 76 to 100% |
| Nc1nc(OCCOc2ccccc2)ncc1F [Compound 748] | – | – | – | – | 0 to 25% | 0 to 25% | – | – |
| CCOC(=O)Nc1nc(OC(C)c2ccc(F)cc2)ncc1F (stereo not shown) [Compound 749] | – | – | – | – | 76 to 100% | 76 to 100% | 76 to 100% | 76 to 100% |
| Fc1ccccc1CNc1nc(OCc2ccccc2)ncc1F [Compound 750] | – | – | – | – | 26 to 50% | 76 to 100% | 26 to 50% | 51 to 75% |

| Compound | pest or weed control at 25 ppm [1] | pest or weed control at 100 ppm [2] | pest or weed control at 25 ppm [3] | pest or weed control at 100 ppm [4] | pest or weed control at 25 ppm [5] | pest or weed control at 100 ppm [6] | pest or weed control at 25 ppm [7] | pest or weed control at 100 ppm [8] |
| --- | --- | --- | --- | --- | --- | --- | --- | --- |
| CN1CCCC/C1=N\c1nc(OCc2ccn(C)n2)ncc1F [Compound 751] | – | – | – | – | 51 to 75% | 76 to 100% | 26 to 50% | 76 to 100% |
| CCOCCOc1cccc(COc2ncc(F)c(N)n2)c1 [Compound 752] | – | – | – | – | 76 to 100% | 76 to 100% | 76 to 100% | 76 to 100% |
| CCOCNc1nc(OCc2ccccc2)ncc1F [Compound 753] | – | – | – | – | 76 to 100% | 76 to 100% | 76 to 100% | 76 to 100% |
| COc1cccc(COc2ncc(F)c(NN3CCOCC3)n2)c1 [Compound 754] | – | – | – | – | 0 to 25% | 0 to 25% | 0 to 25% | 26 to 50% |
| Cc1ccc(COc2ncc(F)c(N(N)C3CCCCC3)n2)cc1 [Compound 755] | – | – | – | – | 26 to 50% | 26 to 50% | 0 to 25% | 0 to 25% |
| Nc1nc(OCc2ccc(Br)cc2)ncc1F [Compound 757] | – | – | – | – | 76 to 100% | 76 to 100% | 76 to 100% | 76 to 100% |
| O=[N+]([O-])c1ccccc1SNc1nc(OCc2cccc(C(F)(F)F)c2F)ncc1F [Compound 758] | – | – | – | – | 26 to 50% | 76 to 100% | 26 to 50% | 51 to 75% |
| O=C(Nc1nc(OCc2cccs2)ncc1F)c1ccccc1 [Compound 759] | – | – | – | – | 51 to 75% | 76 to 100% | 26 to 50% | 76 to 100% |
| CCCCCOC(=O)Nc1nc(OCc2cccc(F)c2)ncc1F [Compound 762] | – | – | – | – | 76 to 100% | 76 to 100% | 76 to 100% | 76 to 100% |
| Nc1nc(OCc2cccnc2)ncc1F [Compound 763] | – | – | – | – | 76 to 100% | 76 to 100% | 76 to 100% | 76 to 100% |
| CC(C)(C)OC(=O)NNc1nc(OCc2ccccc2)ncc1F [Compound 765] | – | – | – | – | 0 to 25% | 26 to 50% | 0 to 25% | 0 to 25% |
| Cc1ccc(COc2ncc(F)c(NNc3ccccc3)n2)cc1 [Compound 766] | – | – | – | – | 0 to 25% | 51 to 75% | 0 to 25% | 26 to 50% |
| COc1cccc(C(=O)Oc2ncc(F)c(/N=C/N(C)C)n2)c1 [Compound 767] | – | – | – | – | 76 to 100% | 76 to 100% | 76 to 100% | 76 to 100% |
| Nc1nc(OCCCc2ccncc2)ncc1F [Compound 768] | – | – | – | – | 0 to 25% | 26 to 50% | 0 to 25% | 26 to 50% |
| COc1ccc(COc2ncc(F)c(NC(=S)Nc3ccccc3F)n2)cc1F [Compound 769] | – | – | – | – | 51 to 75% | 76 to 100% | 0 to 25% | 76 to 100% |
| COc1cccc(COc2ncc(F)c(NC(C)=S)n2)c1 [Compound 770] | – | – | – | – | 76 to 100% | 76 to 100% | 76 to 100% | 76 to 100% |
| CC(Oc1ncc(F)c(NC(=O)OCc2ccccc2)n1)c1ccc(F)cc1 (stereo not shown) [Compound 771] | – | – | – | – | 76 to 100% | 76 to 100% | 76 to 100% | 76 to 100% |
